Experimental data: PubChem BioAssay (NCI)
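In this assay, cells in 96-well plates receive the compound at five concentrations for 48 hours. Endpoints are linearly interpolated between the surrounding concentrations. GI50 is the concentration that inhibits growth by half. At the TGI there is no net growth.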

What was measured:
Assay in all cases: NCI tumour cell line growth inhibition, 48 h
LOX IMVI melanoma = test system: LOX IMVI melanoma
T-47D breast = test system: T-47D breast
SN12C renal = test system: SN12C renal
SK-MEL-2 melanoma = test system: SK-MEL-2 melanoma
SNB-75 CNS = test system: SNB-75 CNS
HCT-15 colon = test system: HCT-15 colon
U251 CNS = test system: U251 CNS
NCI-H460 lung = test system: NCI-H460 lung
MOLT-4 leukemia = test system: MOLT-4 leukemia
SK-MEL-28 melanoma = test system: SK-MEL-28 melanoma
PC-3 prostate = test system: PC-3 prostate
KM12 colon = test system: KM12 colon
NCI-H522 lung = test system: NCI-H522 lung
HOP-92 NSCLC = test system: HOP-92 NSCLC
DU-145 prostate = test system: DU-145 prostate
OVCAR-5 ovarian = test system: OVCAR-5 ovarian
HT29 colon = test system: HT29 colon
NCI-H226 lung = test system: NCI-H226 lung
CAKI-1 renal = test system: CAKI-1 renal
TK-10 renal = test system: TK-10 renal
786-0 renal = test system: 786-0 renal
M14 melanoma = test system: M14 melanoma
UACC-62 melanoma = test system: UACC-62 melanoma
BT-549 breast = test system: BT-549 breast
HL-60(TB) leukemia = test system: HL-60(TB) leukemia
SK-OV-3 ovarian = test system: SK-OV-3 ovarian
UO-31 renal = test system: UO-31 renal
MCF7 breast = test system: MCF7 breast
SW-620 colon = test system: SW-620 colon
SR leukemia = test system: SR leukemia
HCC-2998 colon = test system: HCC-2998 colon
IGROV1 ovarian = test system: IGROV1 ovarian
MDA-MB-435 = test system: MDA-MB-435
SK-MEL-5 melanoma = test system: SK-MEL-5 melanoma
SF-539 CNS = test system: SF-539 CNS
EKVX NSCLC = test system: EKVX NSCLC
SF-295 CNS = test system: SF-295 CNS
ACHN renal = test system: ACHN renal
UACC-257 melanoma = test system: UACC-257 melanoma
A498 renal = test system: A498 renal
HCT-116 colon = test system: HCT-116 colon
MALME-3M melanoma = test system: MALME-3M melanoma
K-562 leukemia = test system: K-562 leukemia
HS 578T breast = test system: HS 578T breast
MDA-MB-231 breast = test system: MDA-MB-231 breast
NCI-H23 lung = test system: NCI-H23 lung
RXF 393 renal = test system: RXF 393 renal
HOP-62 NSCLC = test system: HOP-62 NSCLC
OVCAR-4 ovarian = test system: OVCAR-4 ovarian
SF-268 CNS = test system: SF-268 CNS
OVCAR-3 ovarian = test system: OVCAR-3 ovarian
A549 NSCLC = test system: A549 NSCLC
OVCAR-8 ovarian = test system: OVCAR-8 ovarian
NCI/ADR-RES ovarian = test system: NCI/ADR-RES ovarian
SNB-19 CNS = test system: SNB-19 CNS
COLO 205 colon = test system: COLO 205 colon
RPMI-8226 leukemia = test system: RPMI-8226 leukemia
CCRF-CEM leukemia = test system: CCRF-CEM leukemia

O=C(Nc1cccnc1)c1cccs1
GI50 (LOX IMVI melanoma): > 100 µM | TGI (LOX IMVI melanoma): > 100 µM | GI50 (T-47D breast): > 100 µM | TGI (T-47D breast): > 100 µM | GI50 (SN12C renal): 25.8 µM | TGI (SN12C renal): > 100 µM | GI50 (SK-MEL-2 melanoma): > 100 µM | TGI (SK-MEL-2 melanoma): > 100 µM | GI50 (SNB-75 CNS): 4.77 µM | TGI (SNB-75 CNS): > 100 µM | GI50 (HCT-15 colon): 0.658 µM | TGI (HCT-15 colon): > 100 µM | GI50 (U251 CNS): 1.86 µM | TGI (U251 CNS): > 100 µM | GI50 (NCI-H460 lung): 6.6 µM | TGI (NCI-H460 lung): > 100 µM | GI50 (MOLT-4 leukemia): 3.19 µM | TGI (MOLT-4 leukemia): > 100 µM | GI50 (SK-MEL-28 melanoma): 0.677 µM | TGI (SK-MEL-28 melanoma): > 100 µM | GI50 (PC-3 prostate): > 100 µM | TGI (PC-3 prostate): > 100 µM | GI50 (KM12 colon): 0.941 µM | TGI (KM12 colon): > 100 µM | GI50 (NCI-H522 lung): > 100 µM | TGI (NCI-H522 lung): > 100 µM | GI50 (HOP-92 NSCLC): > 100 µM | TGI (HOP-92 NSCLC): > 100 µM | GI50 (DU-145 prostate): 4.6 µM | TGI (DU-145 prostate): > 100 µM | GI50 (OVCAR-5 ovarian): 45.4 µM | TGI (OVCAR-5 ovarian): > 100 µM | GI50 (HT29 colon): 2.39 µM | TGI (HT29 colon): > 100 µM | GI50 (NCI-H226 lung): 41 µM | TGI (NCI-H226 lung): > 100 µM | GI50 (CAKI-1 renal): 1.4 µM | TGI (CAKI-1 renal): > 100 µM | GI50 (TK-10 renal): > 100 µM | TGI (TK-10 renal): > 100 µM | GI50 (786-0 renal): 6.77 µM | TGI (786-0 renal): > 100 µM | GI50 (M14 melanoma): 0.506 µM | TGI (M14 melanoma): > 100 µM | GI50 (UACC-62 melanoma): 28.1 µM | TGI (UACC-62 melanoma): > 100 µM | GI50 (BT-549 breast): 6.78 µM | TGI (BT-549 breast): > 100 µM | GI50 (HL-60(TB) leukemia): 48.1 µM | TGI (HL-60(TB) leukemia): > 100 µM | GI50 (SK-OV-3 ovarian): 5.57 µM | TGI (SK-OV-3 ovarian): > 100 µM | GI50 (UO-31 renal): > 100 µM | TGI (UO-31 renal): > 100 µM | GI50 (MCF7 breast): 1.67 µM | TGI (MCF7 breast): > 100 µM | GI50 (SW-620 colon): 2.09 µM | TGI (SW-620 colon): > 100 µM | GI50 (SR leukemia): 8.47 µM | TGI (SR leukemia): > 100 µM | GI50 (HCC-2998 colon): 5.56 µM | TGI (HCC-2998 colon): > 100 µM | GI50 (IGROV1 ovarian): > 100 µM | TGI (IGROV1 ovarian): > 100 µM | GI50 (MDA-MB-435): 2.43 µM | TGI (MDA-MB-435): > 100 µM | GI50 (SK-MEL-5 melanoma): 53 µM | TGI (SK-MEL-5 melanoma): > 100 µM | GI50 (SF-539 CNS): 4.51 µM | TGI (SF-539 CNS): > 100 µM | GI50 (EKVX NSCLC): > 100 µM | TGI (EKVX NSCLC): > 100 µM | GI50 (SF-295 CNS): 5.04 µM | TGI (SF-295 CNS): > 100 µM | GI50 (ACHN renal): 8.98 µM | TGI (ACHN renal): > 100 µM | GI50 (UACC-257 melanoma): > 100 µM | TGI (UACC-257 melanoma): > 100 µM | GI50 (A498 renal): > 100 µM | TGI (A498 renal): > 100 µM | GI50 (HCT-116 colon): 1.89 µM | TGI (HCT-116 colon): > 100 µM | GI50 (MALME-3M melanoma): > 100 µM | TGI (MALME-3M melanoma): > 100 µM | GI50 (K-562 leukemia): 0.728 µM | TGI (K-562 leukemia): > 100 µM | GI50 (HS 578T breast): > 100 µM | TGI (HS 578T breast): > 100 µM | GI50 (MDA-MB-231 breast): 81.3 µM | TGI (MDA-MB-231 breast): > 100 µM | GI50 (NCI-H23 lung): 4.84 µM | TGI (NCI-H23 lung): > 100 µM | GI50 (RXF 393 renal): 7.36 µM | TGI (RXF 393 renal): > 100 µM | GI50 (HOP-62 NSCLC): 42.2 µM | TGI (HOP-62 NSCLC): > 100 µM | GI50 (OVCAR-4 ovarian): 1.11 µM | TGI (OVCAR-4 ovarian): > 100 µM | GI50 (SF-268 CNS): 4.54 µM | TGI (SF-268 CNS): > 100 µM | GI50 (OVCAR-3 ovarian): 1.19 µM | TGI (OVCAR-3 ovarian): > 100 µM | GI50 (A549 NSCLC): 5.6 µM | TGI (A549 NSCLC): > 100 µM | GI50 (OVCAR-8 ovarian): 8.94 µM | TGI (OVCAR-8 ovarian): > 100 µM | GI50 (NCI/ADR-RES ovarian): 43.8 µM | TGI (NCI/ADR-RES ovarian): > 100 µM | GI50 (SNB-19 CNS): 9.56 µM | TGI (SNB-19 CNS): > 100 µM | GI50 (COLO 205 colon): 3.08 µM | TGI (COLO 205 colon): > 100 µM

COc1cc(/C=C2\N=C(c3ccccc3)N(c3nc4c(Cl)cc(Cl)cc4s3)C2=O)ccc1O
TGI (LOX IMVI melanoma): 53.6 µM | TGI (T-47D breast): 72.6 µM | TGI (SN12C renal): 51.4 µM | TGI (SK-MEL-2 melanoma): 55.1 µM | TGI (SNB-75 CNS): 75 µM | TGI (HCT-15 colon): > 100 µM | TGI (U251 CNS): 75.4 µM | TGI (NCI-H460 lung): > 100 µM | TGI (MOLT-4 leukemia): 43.3 µM | TGI (SK-MEL-28 melanoma): > 100 µM | TGI (PC-3 prostate): 38.3 µM | TGI (KM12 colon): > 100 µM | TGI (HOP-92 NSCLC): 68 µM | TGI (RPMI-8226 leukemia): 47.4 µM | TGI (DU-145 prostate): > 100 µM | TGI (OVCAR-5 ovarian): > 100 µM | TGI (HT29 colon): 78.5 µM | TGI (CAKI-1 renal): > 100 µM | TGI (TK-10 renal): > 100 µM | TGI (786-0 renal): > 100 µM | TGI (M14 melanoma): > 100 µM | TGI (UACC-62 melanoma): > 100 µM | TGI (BT-549 breast): 77.4 µM | TGI (HL-60(TB) leukemia): 39.7 µM | TGI (SK-OV-3 ovarian): > 100 µM | TGI (UO-31 renal): 69 µM | TGI (MCF7 breast): > 100 µM | TGI (SW-620 colon): > 100 µM | TGI (SR leukemia): 29.6 µM | TGI (HCC-2998 colon): 37.8 µM | TGI (IGROV1 ovarian): > 100 µM | TGI (MDA-MB-435): > 100 µM | TGI (SK-MEL-5 melanoma): > 100 µM | TGI (SF-539 CNS): > 100 µM | TGI (EKVX NSCLC): > 100 µM | TGI (SF-295 CNS): > 100 µM | TGI (ACHN renal): 82.2 µM | TGI (UACC-257 melanoma): > 100 µM | TGI (A498 renal): 49 µM | TGI (HCT-116 colon): 59.7 µM | TGI (K-562 leukemia): > 100 µM | TGI (HS 578T breast): 57.2 µM | TGI (MDA-MB-231 breast): > 100 µM | TGI (RXF 393 renal): 49.1 µM | TGI (HOP-62 NSCLC): > 100 µM | TGI (OVCAR-4 ovarian): > 100 µM | TGI (SF-268 CNS): > 100 µM | TGI (OVCAR-3 ovarian): 91.9 µM | TGI (A549 NSCLC): > 100 µM | TGI (OVCAR-8 ovarian): > 100 µM | TGI (NCI/ADR-RES ovarian): > 100 µM | TGI (CCRF-CEM leukemia): 30.4 µM | TGI (SNB-19 CNS): > 100 µM | TGI (COLO 205 colon): > 100 µM
